“Also recorded” adds a separate entry of the source. Like-named read-outs stand apart in the source and are kept apart here. One block for each compound: values may come before it.
What was measured:
[1] = tested on: U87-MG cells; assay: Cytotoxicity of ICG, MHI-148 and QCy, 72 h in the dark, AlamarBlue; type: cell-based, human
From the text: Cytotoxicity of QCy was studied using U87-MG cells (a glioblastoma multiforme line).

[2] = tested on: U87-MG glioblastoma cells; assay: Organelle localization of the fluors (confocal imaging); type: cell-based, human; conditions: 37° C., DMEM/F12 with 10% FBS pH 7.4; for localization after time (h) 0.5: 0.5 h; for localization after time (h) 24: 24 h
[3] = tested on: U87-MG cells; assay: Uptake and colocalization of 1-Cl and 1-HSA (confocal); type: cell-based, human
Procedure: Colocalization with trackers for mitochondria, lysosome, ER and Golgi are featured. Images were taken using Zeiss confocal microscope at 60×/1.2 water immerse objective after 30 mins of incubation.
FIG. 43 are data from a set of experiments nearly identical to those in FIG. […]
Data in FIG. 42 should be compared with literature reports describing import of 1-Cl but in media containing albumin into various cells.

[4] = Photophysical properties; type: physicochemical
[5] = Photostability under LED irradiation at 780 nm; type: physicochemical; conditions: PBS pH 7.4, LED 780 nm
Procedure: Initially, equimolar concentrations (20 μM) were used; QCy was reproducibly and more robust than the other two, but the difference was more than anticipated so the experimental design was suspected.

[6] = Solubility in water; type: physicochemical
Procedure: 1-NMe2 is water soluble up until 1000 μM whereas 1-CH2 precipitates at 100 μM.

[7] = molecular target: T1, HSA (Homo sapiens, UniProt P02768); assay: Covalent binding / reaction of cyanines with HSA (LC/MS, ESI MS, NIR-fluorescent gel); conditions: HEPES buffer pH 7.4, 37° C.
T1 sequence (P02768 25-609): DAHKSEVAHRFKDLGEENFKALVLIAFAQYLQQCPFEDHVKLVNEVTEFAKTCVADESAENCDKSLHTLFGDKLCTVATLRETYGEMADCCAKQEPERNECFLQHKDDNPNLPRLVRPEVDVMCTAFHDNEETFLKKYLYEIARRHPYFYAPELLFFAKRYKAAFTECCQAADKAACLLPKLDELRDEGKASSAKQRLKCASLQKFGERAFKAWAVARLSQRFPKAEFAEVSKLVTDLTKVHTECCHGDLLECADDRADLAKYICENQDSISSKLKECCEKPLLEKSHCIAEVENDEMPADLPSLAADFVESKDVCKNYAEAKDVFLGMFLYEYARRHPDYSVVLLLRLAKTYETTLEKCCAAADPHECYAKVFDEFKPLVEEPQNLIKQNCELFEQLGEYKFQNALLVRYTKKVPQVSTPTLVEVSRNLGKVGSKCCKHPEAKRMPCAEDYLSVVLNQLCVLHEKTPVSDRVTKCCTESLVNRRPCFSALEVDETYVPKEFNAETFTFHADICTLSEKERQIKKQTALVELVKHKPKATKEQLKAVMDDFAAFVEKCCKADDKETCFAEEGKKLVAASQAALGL
Procedure: FIGS. 33A to 33D show kinetics of a, 1, c, 4, d, 5; e, 6 in 1 M HEPES buffer pH 7.4. […] The kinetics was examined on C, 18 column using Agilent 1200 series LC/MS at 600 nm.
FIGS. 34A and 34B show mass spectra of a, free HSA and b, 1 bound to HSA. HSA: 1 (2.5:1); buffer 1 M HEPES.
In a control experiment, human serum albumin (HSA) was reacted with 2.5 equivalents of 1-Cl at 37° C. in 1 M HEPES buffer. This 1-Cl:albumin molar ratio was selected because it is approximately that used in cell culture experiments to probe uptake of this dye.
To test this assertion the experimental design was modified in the following way.

[8] = molecular target: T1, HSA; assay: as above
[9] = tested on: HEPG2 cells; assay: Cytotoxicity (cell viability, MTT assay) on HEPG2 cells; type: cell-based; conditions: HEPG2 cells (liver cancer)
Procedure: Approximately 5000 HEPG2 cells/well were seeded on 96 well plate containing 10% fetal bovine serum. Cells were allowed to adhere overnight before test compounds were added. Stock solutions of 1a (0.02 M in DMSO) were diluted with protein-free medium (PFHM-II) to make desired final concentrations varying from 0.01 to 80 μM. The cells were incubated with the desired concentration for 48 h. The cell viabilities were calculated using MTT assay. Briefly, 20 μL of 3-(4,5-dimethylthiazol-2-yl)-2,5-diphenyltetrazolium bromide MTT (5 mg/mL, in Hank's balanced salt solution) were added and the cells were incubated for an additional 3.5 h. The medium was then removed, and […] of DMSO was added to dissolve the formazan crystal formed. The optical density of each well (at 570 nm) was measured with a BioTek Synergy 4 Microplate Reader. The viability of each cell line in response to the treatment with tested compounds was calculated as: % dead cells=100−(OD treated/OD control)×100.

[10] = tested on: U87-MG cells; assay: Cytotoxicity (cell viability) on U87-MG cells; type: cell-based; conditions: for cytotoxicity compared with parent dye, parent kinase inhibitor (and their mixture): U87-MG cells (glioblastoma)
[11] = tested on: U87-MG (Glioblastoma) cells as compared to HUVEC (normal cells); assay: Uptake by U87-MG cells as compared to HUVEC; type: cell-based, human
[12] = tested on: HEPG2 cells; assay: 1a in HEPG2 cells: morphology change and co-localization in organelles; type: cell-based
From the text: FIG. 5A visualizes some of the data from FIGS. 4A and 4B (that on HEPG2 cells).
Localization of compounds in mitochondria tends to give more pronounced cytotoxicity effects than accumulation in most organelles.

[13] = tested on: MDA-MB-231 “triple negative” breast cancer cells; assay: Cytotoxicity (cell viability) on MDA-MB-231 cells; type: cell-based; conditions: MDA-MB-231 (breast cancer cells)
[14] = Aggregation: concentration dependence of absorbance spectra; type: physicochemical; conditions: 1.25-20 μM, 10 mM pH 7.4 PBS
Procedure: FIGS. 37A and 37B show concentration dependence of absorbance spectra in the range 1.25-20 μM in 10 mM pH 7.4 PBS buffer a, (B) MHI-148 and b, (1) QCy.
Shoulders of that kind and indicative of H-aggregates, ie associative oligomers in which the transition moments of the monomers are not well aligned leading to […] (blue) shifts. Concentration dependences of absorbance spectra of QCy and MHI-148 (structurally the closest) were determined to explore H-aggregation further.

brightness (εmax × Φ) ([4]; 10 mM PBS buffer pH 7.4): 3689
Δλ (Stokes' shift) ([4]; 10 mM PBS buffer pH 7.4): 24 nm
εmax ([4]; 10 mM PBS buffer pH 7.4): 149940 cm^−1M^−1
λabs ([4]; 10 mM PBS buffer pH 7.4): 775 nm
λem ([4]; 10 mM PBS buffer pH 7.4): 799 nm
relative brightness ([4]; 10 mM PBS buffer pH 7.4, relative to ICG): 1.90
Φ (fluorescence quantum yield) ([4]; 10 mM PBS buffer pH 7.4, standard A (Φ = 0.13 in DMSO)): 0.025
photostability (in words) [5]: the least stable
concentration at which it precipitates [6]: 100 µM
binding to thiol-blocked HSA (TCEP, then 6-maleimide hexanoic acid) ([8]; 15 μM HSA, 15 μM dye): did not bind to 1-Cl
Compound: CC1(C)C(/C=C/C2=C(Cl)C(=C/C=C3\N(CCCCCC(=O)O)c4ccccc4C3(C)C)/CCC2)=[N+](CCCCCC(=O)O)c2ccccc21 [Compound 1]
IC50 [1]: 19.1 ± 1.01 µM
localization after time (h) 0.5 [2]: mitochondria
localization after time (h) 24 [2]: mitochondria and lysosome
organelle colocalization after uptake ([3]; 20 μM, serum free media, 30 mins, listed as 1-Cl): localized in the mitochondria; also recorded: Most colocalization is seen with the mitochondria
organelle localization after uptake ([3]; media containing albumin): fluorescence was observed mostly in the mitochondria
covalent binding / reaction with HSA [7]: showed an increase in peak with HSA; also recorded: HSA is bound to 1; also recorded: binds to HSA at cysteine 34 position
covalent binding / reaction with HSA ([7]; listed as 1-Cl): 1:1 covalent adduct and does combine with HSA
consumption in reaction with HSA ([8]; 0.5 mM HSA, 0.2 mM 1-Cl, 1 M HEPES pH 7.4, 37° C.): nearly all the 1-Cl is consumed after 72 h

Compound: Cc1nc(Nc2ncc(C(=O)Nc3c(C)cccc3Cl)s2)cc(N2CCN(CCOC(=O)CCCCCN3C(=CC=C4CCCC(C=CC5=[N+](CCCCCC(=O)O)c6ccccc6C5(C)C)=C4Cl)C(C)(C)c4ccccc43)CC2)n1 [Compound 1a]
cytotoxicity compared with parent dye, parent kinase inhibitor (and their mixture) [9]: more found to be toxic than individual 1, a or a combination of 1+a; also recorded: significantly more toxic than the parent dye, the parent kinase inhibitor, or a mixture of the dye and kinase inhibitor
cytotoxicity compared with parent dye, parent kinase inhibitor (and their mixture) [10]: more found to be toxic than individual 1, a or a combination of 1+a; also recorded: significantly more toxic than the parent dye, the parent kinase inhibitor, or a mixture of the dye and kinase inhibitor
cytotoxicity compared with ICG-COOH conjugate ([10]; U87-MG, 24 and 48 h): more toxic than ICG-COOH-a
uptake by U87-MG cells compared to HUVEC [11]: localizes more in U87-MG cells than HUVEC cells
organelle localization ([12]; HEPG2): localizes preferentially in mitochondria
influence on cell morphology compared with dasatinib a ([12]; HEPG2, 24 and 48 h): much stronger influence on the cell morphology

Compound: CN(C)C(=O)c1cc2cnc(Nc3ccc(N4CCN(C(=O)CCCCCN5/C(=C/C=C6\CCCC(/C=C/C7=[N+](CCCCCC(=O)[O-])c8ccccc8C7(C)C)=C6Cl)C(C)(C)c6ccccc65)CC4)cn3)nc2n1C1CCCC1 [Compound 1c]
cytotoxicity compared with parent dye, parent kinase inhibitor (and their mixture) [13]: more found to be toxic than individual 1, c or a combination of 1+c; also recorded: significantly more toxic than the parent dye, the parent kinase inhibitor, or a mixture of the dye and kinase inhibitor

Compound: CC(Oc1cc(-c2cnn(C3CCN(C(=O)CCCCCN4C(=CC=C5CCCC(C=CC6=[N+](CCCCCC(=O)[O-])c7ccccc7C6(C)C)=C5Cl)C(C)(C)c5ccccc54)CC3)c2)cnc1N)c1c(Cl)ccc(F)c1Cl (stereo not shown) [Compound 1d]
cytotoxicity compared with parent dye, parent kinase inhibitor (and their mixture) [13]: more found to be toxic than individual 1, d or a combination of 1+d; also recorded: significantly more toxic than the parent dye, the parent kinase inhibitor, or a mixture of the dye and kinase inhibitor

Compound: CC(=O)c1c(C)c2cnc(Nc3ccc(N4CCN(C(=O)CCCCCN5C(=CC=C6CCCC(C=CC7=[N+](CCCCS(=O)(=O)[O-])c8ccccc8C7(C)C)=C6Cl)C(C)(C)c6ccccc65)CC4)cn3)nc2n(C2CCCC2)c1=O [Compound 3b]
cytotoxicity compared with parent dye, parent kinase inhibitor (and their mixture) [10]: more toxic than b or 3

covalent binding / reaction with HSA [7]: did not bind
covalent binding / reaction with HSA ([7]; listed as 1-H): do not react with HSA
Compound: CC1(C)C(/C=C/C2=CC(=C/C=C3/N(CCCCCC(=O)O)c4ccccc4C3(C)C)/CCC2)=[N+](CCCCCC(=O)[O-])c2ccccc21 [Compound 4]

covalent binding / reaction with HSA [7]: did not bind
covalent binding / reaction with HSA ([7]; listed as 1-Me): do not react with HSA
Compound: CC1=C(/C=C/C2=[N+](CCCCCC(=O)[O-])c3ccccc3C2(C)C)CCC/C1=C\C=C1\N(CCCCCC(=O)O)c2ccccc2C1(C)C [Compound 5]

covalent binding / reaction with HSA ([7]; listed as 1-Ph): do not react with HSA
Compound: CC1(C)C(/C=C/C2=C(c3ccccc3)C(=C/C=C3/N(CCCCCC(=O)O)c4ccccc4C3(C)C)/CCC2)=[N+](CCCCCC(=O)[O-])c2ccccc21 [Compound 6]

fluorescence quantum yield relative to ICG [4]: about three times greater
absorbance of equimolar solutions ([4]; 5 μM, 10 mM pH 7.4 PBS): greater absorbance than ICG or MHI-148
brightness (εmax × Φ) ([4]; 10 mM PBS buffer pH 7.4): 9901
εmax ([4]; 10 mM PBS buffer pH 7.4): 192460 cm^−1M^−1
brightness compared with 1-CH2 (in words) ([4]; PBS buffer): brighter dye than 1-CH2
brightness relative to 1-CH2 ([4]; PBS, pH 7.4): 2 ×
quantum yield relative to 1-CH2 ([4]; PBS, pH 7.4): 2 ×
shift of absorbance and fluorescence maxima to shorter wavelengths ([4]; compared with ICG and 1-CH2): ~30 nm
extinction coefficient relative to 1-CH2 ([4]; in water): ~3 ×
water solubility (in words) [6]: more water soluble than MHI-148
water soluble up until (concentration) [6]: ≤ 1000 µM
Compound: CC1(C)C(=CC=C2C[N+](C)(C)CC(C=CC3=[N+](CCCCCC(=O)O)c4ccccc4C3(C)C)=C2Cl)N(CCCCCC(=O)O)c2ccccc21 [QCy]
IC50 [1]: > 80 µM
cytotoxicity (in words) [1]: not very toxic until 80 μM
localization after time (h) 0.5 [2]: golgi
localization after time (h) 24 [2]: lysosome and ER
fluorescence brightness of equimolar solutions ([4]; 5 μM, 10 mM pH 7.4 PBS): markedly higher than the other two fluors
extinction coefficient compared with 1-CH2 (in words) ([4]; in PBS buffer and in water): stronger extinction coefficient than 1-CH2
photostability (in words) [5]: almost no decomposition after 1 h continuous illumination; also recorded: the most photostable
photostability (in words) ([5]; listed as 1-NMe2): more stable than 1-CH2; also recorded: significantly more photostable than 1-CH2 or ICG
water solubility (in words) ([6]; listed as 1-NMe2): significantly more soluble in water than 1-CH2
aggregation (H-aggregates) in aqueous media [14]: less prone to aggregation in aqueous media than MHI-148; also recorded: considerably less aggregated than MHI-148

Compound: Indocyanine green [ICG]
localization after time (h) 0.5 [2]: golgi and ER
localization after time (h) 24 [2]: golgi and lysosome

— US11040106B2, “Conjugates of kinase inhibitors and cyanine dyes” (priority 2018, dated 2021)
